Values quoted from earlier work, collected in patent publication US20240033213A1, “TOPICAL PHARMACEUTICAL FORMULATION AND METHOD FOR THE TREATMENT OF SYNDROMES ASSOCIATED WITH CHRONIC PELVIC PAIN” (CURALEAF INTERNATIONAL LIMITED, priority 2020, published 2024).

Molecular target: T1, TRPV1 receptor (Rattus norvegicus, UniProt O35433)
T1 construct: CBD Effects on TRPV1 Signaling Pathways in Cultured DRG Neurons; host or cells: cultured DRG sensory neurons (endogenous TRPV1)
Conditions: sensory neurons in an animal model, in vitro

T1 sequence (O35433 whole entry): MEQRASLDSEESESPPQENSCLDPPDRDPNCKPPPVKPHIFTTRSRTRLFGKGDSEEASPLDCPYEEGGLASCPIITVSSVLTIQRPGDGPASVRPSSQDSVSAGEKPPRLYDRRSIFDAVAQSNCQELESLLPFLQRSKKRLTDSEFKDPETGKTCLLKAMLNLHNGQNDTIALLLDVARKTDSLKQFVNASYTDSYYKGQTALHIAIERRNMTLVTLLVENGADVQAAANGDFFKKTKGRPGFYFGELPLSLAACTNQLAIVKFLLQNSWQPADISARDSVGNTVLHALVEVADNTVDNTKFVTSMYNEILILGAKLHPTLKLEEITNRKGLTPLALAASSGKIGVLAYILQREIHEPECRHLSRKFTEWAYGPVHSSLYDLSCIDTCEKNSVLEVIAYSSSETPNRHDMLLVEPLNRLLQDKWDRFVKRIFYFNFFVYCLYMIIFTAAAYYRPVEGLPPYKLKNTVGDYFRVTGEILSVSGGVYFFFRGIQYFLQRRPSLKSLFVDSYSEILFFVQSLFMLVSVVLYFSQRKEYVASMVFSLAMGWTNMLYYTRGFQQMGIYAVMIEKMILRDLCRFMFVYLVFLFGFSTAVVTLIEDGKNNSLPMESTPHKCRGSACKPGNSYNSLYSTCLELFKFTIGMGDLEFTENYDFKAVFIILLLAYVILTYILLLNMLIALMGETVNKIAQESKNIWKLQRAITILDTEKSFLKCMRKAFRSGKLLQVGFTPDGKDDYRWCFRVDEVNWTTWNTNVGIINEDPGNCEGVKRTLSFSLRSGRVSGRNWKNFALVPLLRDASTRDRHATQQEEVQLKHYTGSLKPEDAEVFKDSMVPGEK

SMILES: C=C(C)[C@@H]1CCC(C)=C[C@H]1c1c(O)cc(CCCCC)cc1O [cannabidiol]
- Effect on neuronal hypersensitivity following TRPV1 activation: inhibit neuronal hypersensitivity following TRPV1 activation
